A word on the IC50: it is the concentration at which inhibition is half-maximal. Broadly, the EC50 is the concentration giving half of the maximal effect. Lower therefore signals higher potency in that assay. By Emax is commonly meant the maximal effect, on the per cent scale that the assay sets. As a reminder, the clearance is the rate of elimination divided by the concentration. Low readings indicate a low capacity for elimination, high ones a high capacity for elimination. The half-life is the time in which the quantity being followed falls by half. Read a high half-life as slow loss. What is called bioavailability is dose-corrected exposure relative to a reference, in per cent. Read a low bioavailability as poor availability. For orientation: Cmax means the maximum level reached in the sampled fluid or tissue. Broadly, the AUC is concentration integrated over time. Read a low AUC as less exposure.

The source of these data is ChEMBL document CHEMBL4145686, “Discovery of a Potent and Selective Steroidal Glucocorticoid Receptor Antagonist (ORIC-101)” (J Med Chem, 2018).

The target of data set [1] is T1, Glucocorticoid receptor (Homo sapiens, UniProt P04150).
T1 sequence (P04150 whole entry): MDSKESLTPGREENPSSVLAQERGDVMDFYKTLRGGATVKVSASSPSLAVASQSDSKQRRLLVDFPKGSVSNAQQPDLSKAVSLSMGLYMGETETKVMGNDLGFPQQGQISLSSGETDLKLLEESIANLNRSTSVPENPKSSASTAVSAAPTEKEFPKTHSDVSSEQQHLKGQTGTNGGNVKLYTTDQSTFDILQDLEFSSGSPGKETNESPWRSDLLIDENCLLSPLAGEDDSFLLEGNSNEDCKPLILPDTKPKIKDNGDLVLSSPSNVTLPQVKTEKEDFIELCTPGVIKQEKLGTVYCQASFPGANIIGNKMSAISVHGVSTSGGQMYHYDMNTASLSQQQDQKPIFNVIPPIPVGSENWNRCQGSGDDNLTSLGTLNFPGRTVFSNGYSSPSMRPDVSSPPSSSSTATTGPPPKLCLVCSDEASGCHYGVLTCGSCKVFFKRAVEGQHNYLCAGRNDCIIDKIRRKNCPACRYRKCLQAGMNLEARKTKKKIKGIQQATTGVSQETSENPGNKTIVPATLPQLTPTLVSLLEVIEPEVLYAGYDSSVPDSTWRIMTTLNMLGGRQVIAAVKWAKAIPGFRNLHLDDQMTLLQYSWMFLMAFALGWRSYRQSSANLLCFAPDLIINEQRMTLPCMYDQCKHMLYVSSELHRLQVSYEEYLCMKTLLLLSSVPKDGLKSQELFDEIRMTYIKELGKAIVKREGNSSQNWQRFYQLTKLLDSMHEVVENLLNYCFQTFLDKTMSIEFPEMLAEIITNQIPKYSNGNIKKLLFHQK
The data set is described as follows: Antagonist activity at human GR expressed in CHO-K1 cells assessed as reduction in dexamethasone-induced response incubated for 20 hrs by luciferase reporter gene assay. The class given is cell-based. (In general: In a reporter assay the amount or activity of a reporter protein is the signal.)

The target in data set [2] is T1, Glucocorticoid receptor. Kind of data set: Agonist activity at human GR expressed in CHO-K1 cells incubated for 20 hrs by luciferase reporter gene assay. The class given is cell-based.
Data set [3] deals with T2, glucocorticoid receptor (GR) (Homo sapiens, UniProt P04150).
T2 sequence (P04150 whole entry): T1 sequence (P04150 whole entry)
The data set is described as follows: Agonist activity at human GR expressed in CHO-K1 cells incubated for 20 hrs by luciferase reporter gene assay relative to dexamethasone. The class given is cell-based. The note with it: CHO-K1 cells expressing human GR.

In a further data set the target is T3, Androgen receptor (Homo sapiens, UniProt P10275).
T3 sequence (P10275 whole entry): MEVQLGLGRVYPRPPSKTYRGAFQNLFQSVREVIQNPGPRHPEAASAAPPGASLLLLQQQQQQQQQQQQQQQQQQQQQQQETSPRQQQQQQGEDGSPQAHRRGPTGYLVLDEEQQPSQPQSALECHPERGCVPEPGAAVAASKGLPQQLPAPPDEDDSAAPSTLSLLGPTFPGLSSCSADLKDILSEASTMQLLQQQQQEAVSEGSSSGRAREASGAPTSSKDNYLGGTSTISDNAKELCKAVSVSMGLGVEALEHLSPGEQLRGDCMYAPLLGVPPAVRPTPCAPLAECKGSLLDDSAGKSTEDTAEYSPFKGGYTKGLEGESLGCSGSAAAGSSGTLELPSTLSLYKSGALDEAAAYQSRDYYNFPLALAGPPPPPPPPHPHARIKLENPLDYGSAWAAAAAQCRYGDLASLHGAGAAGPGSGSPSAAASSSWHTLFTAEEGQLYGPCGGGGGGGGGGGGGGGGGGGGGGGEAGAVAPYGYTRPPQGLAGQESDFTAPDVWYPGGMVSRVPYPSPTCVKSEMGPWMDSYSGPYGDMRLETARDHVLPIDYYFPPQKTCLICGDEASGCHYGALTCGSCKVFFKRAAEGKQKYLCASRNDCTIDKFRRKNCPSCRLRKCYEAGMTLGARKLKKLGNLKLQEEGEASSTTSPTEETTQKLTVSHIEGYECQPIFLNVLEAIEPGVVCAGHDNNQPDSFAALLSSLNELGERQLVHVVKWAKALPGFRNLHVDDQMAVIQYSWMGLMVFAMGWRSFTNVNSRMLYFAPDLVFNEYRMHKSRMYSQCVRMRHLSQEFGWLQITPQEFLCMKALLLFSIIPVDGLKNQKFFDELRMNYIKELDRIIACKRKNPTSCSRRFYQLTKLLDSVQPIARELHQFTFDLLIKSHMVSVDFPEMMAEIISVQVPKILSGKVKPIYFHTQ
Kind of data set: Agonist activity at AR (unknown origin) expressed in human LNCaP cells incubated for 20 hrs by luciferase reporter gene assay. The class given is cell-based.

A further data set addresses T4, androgen receptor (AR) (Homo sapiens, UniProt P10275).
T4 sequence (P10275 whole entry): T3 sequence (P10275 whole entry)
Kind of data set: Agonist activity at AR (unknown origin) expressed in human LNCaP cells incubated for 20 hrs by luciferase reporter gene assay relative to mifepristone. The class given is cell-based. The note with it: human LNCaP cells expressing AR.

Data set [4] in a line: Clearance in rat at 0.5 mg/kg, iv. The class given is ADME, organism-based. As to conditions: in vivo.
Data set [5] can be described thus: Volume of distribution at steady state in rat at 0.5 mg/kg, iv. The class given is ADME, organism-based. The note with it: in vivo, read-out: Vdss.
A short description of data set [6]: Half life in rat at 0.5 mg/kg, iv. The class given is ADME, organism-based. The note with it: in vivo.
A short description of data set [7]: Oral bioavailability in rat at 5 mg/kg. As to conditions: in vivo. The format is ADME, organism-based.
Data set [8] in a line: Cmax in rat at 5 mg/kg, po. The format is ADME, organism-based. Set-up: dose 5 mg/kg, route oral. The note with it: in vivo.
Data set [9] can be described thus: AUC in rat at 5 mg/kg, po. The format is ADME, organism-based. As to conditions: in vivo.
A further data set deals with Cytochrome P450 3A4 (Homo sapiens, UniProt P08684). Kind of data set: Inhibition of CYP3A4 (unknown origin) using midazolam as substrate. The class given is ADME.
The target of another data set is T5, Cytochrome P450 2C8 (Homo sapiens, UniProt P10632).
T5 sequence (P10632 whole entry): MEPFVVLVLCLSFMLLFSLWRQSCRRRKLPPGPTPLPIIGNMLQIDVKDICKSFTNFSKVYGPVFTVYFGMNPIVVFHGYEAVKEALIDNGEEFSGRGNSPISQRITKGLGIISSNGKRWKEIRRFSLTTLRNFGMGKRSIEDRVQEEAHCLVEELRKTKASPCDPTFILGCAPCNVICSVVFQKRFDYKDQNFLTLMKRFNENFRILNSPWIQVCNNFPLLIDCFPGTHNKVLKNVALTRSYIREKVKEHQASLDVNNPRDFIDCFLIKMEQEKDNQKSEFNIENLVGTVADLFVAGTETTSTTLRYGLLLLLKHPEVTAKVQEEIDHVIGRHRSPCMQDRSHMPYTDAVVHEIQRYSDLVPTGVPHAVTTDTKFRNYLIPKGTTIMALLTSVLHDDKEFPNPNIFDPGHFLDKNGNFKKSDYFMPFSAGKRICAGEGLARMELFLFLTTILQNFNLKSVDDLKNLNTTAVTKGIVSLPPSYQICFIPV
Kind of data set: Inhibition of CYP2C8 (unknown origin) using […] as substrate. The class given is ADME.

The target of another data set is Cytochrome P450 2C9 (Homo sapiens, UniProt P11712). The data set is described as follows: Inhibition of CYP2C9 (unknown origin) using […] as substrate. The format is ADME.
Cytochrome P450 2C9, sequence (P11712 whole entry): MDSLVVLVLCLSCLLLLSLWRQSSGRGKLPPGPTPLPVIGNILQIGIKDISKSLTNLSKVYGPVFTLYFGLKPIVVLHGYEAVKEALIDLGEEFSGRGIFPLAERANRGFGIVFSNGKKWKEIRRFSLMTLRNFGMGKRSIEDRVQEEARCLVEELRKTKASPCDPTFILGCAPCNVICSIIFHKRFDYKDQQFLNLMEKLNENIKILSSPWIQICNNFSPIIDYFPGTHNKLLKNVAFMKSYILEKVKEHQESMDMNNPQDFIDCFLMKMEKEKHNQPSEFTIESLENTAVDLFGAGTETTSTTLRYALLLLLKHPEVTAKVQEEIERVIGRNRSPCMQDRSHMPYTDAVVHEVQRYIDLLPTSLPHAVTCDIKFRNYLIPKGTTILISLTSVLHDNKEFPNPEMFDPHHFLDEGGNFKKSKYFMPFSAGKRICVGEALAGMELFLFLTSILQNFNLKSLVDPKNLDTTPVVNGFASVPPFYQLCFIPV

Cytochrome P450 3A4, sequence (P08684 whole entry): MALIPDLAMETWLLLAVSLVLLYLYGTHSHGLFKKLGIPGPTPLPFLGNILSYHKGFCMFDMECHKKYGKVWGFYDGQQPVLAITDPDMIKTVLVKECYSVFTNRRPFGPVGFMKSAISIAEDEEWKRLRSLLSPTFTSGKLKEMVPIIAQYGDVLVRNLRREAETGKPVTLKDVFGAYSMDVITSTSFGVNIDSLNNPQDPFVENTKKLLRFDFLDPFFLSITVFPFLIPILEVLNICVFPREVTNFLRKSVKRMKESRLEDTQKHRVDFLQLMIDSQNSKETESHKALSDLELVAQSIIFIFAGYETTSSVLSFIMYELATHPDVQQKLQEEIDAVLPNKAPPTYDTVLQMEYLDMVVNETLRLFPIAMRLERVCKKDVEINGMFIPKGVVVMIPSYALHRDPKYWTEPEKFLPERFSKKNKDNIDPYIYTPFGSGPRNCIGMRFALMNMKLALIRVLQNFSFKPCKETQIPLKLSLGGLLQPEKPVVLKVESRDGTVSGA

For `COC(C)(C)C#C[C@]1(O)CC[C@H]2[C@@H]3CCC4=CC(=O)CC[C@@H]4[C@H]3[C@@H](c3ccc(N(C)C)cc3)C[C@@]21C`, at Glucocorticoid receptor [1], the half-maximal inhibitory concentration (IC50) came to 14.6 nM. Moreover, the EC50 on Glucocorticoid receptor [2] and at Androgen receptor was more than 2500 nM in each case. In addition, the Emax at 20 h in data set [3] stood at 1.7%; at androgen receptor (AR) it was 10.6%. The clearance in data set [4] was 83.3 mL/min/kg. The Vd in data set [5] stood at 7.2 L/kg. The same compound gave a half-life in [6] of 2.4 h. Further, the bioavailability in [7] came out at 54%. The Cmax in [8] worked out at 295 ng/mL. Also, the AUC in [9] worked out at 544 ng·h/mL.

On to `CN(C)c1ccc([C@H]2C[C@@]3(C)[C@@H](CC[C@@]3(O)C#CC(C)(C)C)[C@@H]3CCC4=CC(=O)CCC4=C32)cc1`, for which the IC50 at Glucocorticoid receptor [1] is 14.6 nM; against Cytochrome P450 3A4, 2900 nM; on Cytochrome P450 2C8, more than 10000 nM; against Cytochrome P450 2C9 it was more than 10000 nM. The concentration for a half-maximal effect (EC50) at Glucocorticoid receptor [2] and on Androgen receptor was more than 2500 nM throughout. For the same compound, the Emax at 20 h in data set [3] was determined as 1.4%; on androgen receptor (AR), 13.4%. This compound also gave a clearance in data set [4] of 66.7 mL/min/kg. The Vd in data set [5] is 4.9 L/kg. In [6], this compound had a half-life of 1.9 h. For the same compound, the bioavailability in [7] amounted to 37%. Further, in data set [8], the concentration peaked (Cmax) at 72 ng/mL. Besides, the AUC in data set [9] was 471 ng·h/mL.

Regarding `CC(C)(C)C#C[C@]1(O)CC[C@H]2[C@@H]3CCC4=CC(=O)CCC4=C3[C@@H](c3ccc(N4CCCC4)cc3)C[C@@]21C`, at Glucocorticoid receptor [1], the half-maximal inhibitory concentration (IC50) came to 19.5 nM. Also, the concentration giving a half-maximal response (EC50) on Glucocorticoid receptor [2] and on Androgen receptor was more than 2500 nM each time. Moreover, the maximal effect (Emax) at 20 h amounted to 1.2% in data set [3] and 13.3% at androgen receptor (AR). In data set [4], this compound showed a clearance of 4.67 mL/min/kg. Also, in data set [5], the Vd is 1.5 L/kg. This compound showed a half-life in data set [6] of 3.6 h. Besides, the bioavailability in data set [7] was found to be 0.7%. In addition, in data set [8], the Cmax is 21 ng/mL. Besides, the AUC in [9] was 167 ng·h/mL.

`CC(C)(C)C#C[C@]1(O)CC[C@H]2[C@@H]3CCC4=CC(=O)CCC4=C3[C@@H](c3ccc(C4(C)COC4)cc3)C[C@@]21C`: at Glucocorticoid receptor [1], the IC50 is 9.6 nM. The EC50 on Glucocorticoid receptor [2] and on Androgen receptor was more than 2500 nM throughout. In addition, the values for the Emax at 20 h (in [3]; on androgen receptor (AR)) were 2.2% and 11%, respectively. In data set [4], this compound had a clearance of 50 mL/min/kg. Also, in data set [5], the Vd is 6.7 L/kg. The compound further showed a half-life in data set [6] of 4.4 h. This compound registered a bioavailability in data set [7] of 7.2%. Besides, the Cmax in data set [8] came out at 59 ng/mL. In [9], this compound had an AUC of 123 ng·h/mL.

`CC(C)N(C)c1ccc([C@H]2C[C@@]3(C)[C@@H](CC[C@@]3(O)C#CC(C)(C)C)[C@@H]3CCC4=CC(=O)CCC4=C32)cc1`: the IC50 on Glucocorticoid receptor [1] was 43 nM. In addition, the half-maximal effective concentration (EC50) at Glucocorticoid receptor [2] and on Androgen receptor was more than 2500 nM throughout. Moreover, the Emax at 20 h in data set [3] worked out at 1.7%; on androgen receptor (AR), 8.2%. This compound had a clearance in [4] of 66.7 mL/min/kg. Besides, the Vd in [5] is 4.7 L/kg. This compound also had a half-life in data set [6] of 1.5 h. The bioavailability in [7] stood at 23%. The same compound gave a Cmax in [8] of 59 ng/mL. Further, the AUC in data set [9] was found to be 290 ng·h/mL.
